15 molecules from patent publication US10077261B2, “Imidazolin-5-one derivative useful as FASN inhibitors for the treatment of cancer” (Janssen Pharmaceutica NV, priority 2012, dated 2018) can be followed below.

For orientation: inhibition means the change of the read-out against control, counted positive when it falls.

Some results are limits rather than exact numbers.

Test [1] has as its target T1, hFASN enzyme (full length) (Homo sapiens, UniProt P49327).
T1 construct: 10 μL hFASN enzyme (full length, 300 ng, purified in house); made in house
As to the kind of experiment: Fatty Acid Synthase (FASN) inhibition scintillation proximity assay. It counts as biochemical. Particulars: for inhibition at 10 µM: read-out: Human FASN % inhibition @ 10 μM, 10 μM test compound; for IC50: read-out: Human FASN pIC50 (converted). An outline of the steps:
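Full-length in-house purified enzyme (300 ng) was tested in 100 mM KH2PO4 pH 7.5, 1 mM DTT with ³H-acetyl-CoA and malonyl-CoA as substrates; compounds ranged 0.01–30 μM. Reactions were stopped with streptavidin imaging beads, read by LEADseeker at 610 nm, and fitted to a 4-parameter logistic curve.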
(SPA uses beads or plates that emit light when radiolabelled molecules are held near them.)

In test [2] the test system is A2780 ovarian cells. Briefly: A2780 ovarian cell proliferation assay in lipid reduced medium, with palmitate (MTT). It counts as cell-based. Particulars: Homo sapiens, A2780, 96 h; read-out: pIC50 A2780 Ovarian Cell, With Palmitate (converted). An outline of the steps: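 Seeded cells were switched next day to lipid-reduced serum, exposed to compound and 25 μM palmitate complexed with fatty-acid-free BSA, and incubated 96 h. Proliferation was then determined by MTT absorbance at 544 nm, with a best-fit curve of signal against concentration.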

The subject of test [3] is A2780 ovarian cells. As to the kind of experiment: A2780 ovarian cell proliferation assay in lipid reduced medium, without palmitate (MTT). It counts as cell-based. The note with it: Homo sapiens, A2780, 96 h; read-out: pIC50 A2780 Ovarian Cell, Without Palmitate (converted).
Test [4] deals with LNCaP-Vancouver prostate cells. Briefly: In vitro LNCaP Vancouver prostate cell proliferation assay in lipid reduced medium. Particulars: read-out: pIC50 LNCaP_Vancouver prostate cell (converted). It counts as cell-based.
The test system of test [5] is PC-3M-Luc-C6 prostate cells. Briefly: In vitro PC-3M-Luc-C6 prostate cell proliferation assay in lipid reduced medium. Particulars: 96 h, read-out: pIC50 PC-3M-Luc-C6 prostate cell (converted). It counts as cell-based.
Test [6] deals with Fatty Acid Synthase Keto-reductase Domain (FASN KR) (Homo sapiens, UniProt P49327). Briefly: Fatty Acid Synthase keto-reductase domain (FASN KR) inhibition, NADPH oxidation at 340 nm.
Fatty Acid Synthase Keto-reductase Domain (FASN KR), sequence (P49327 whole entry, the tested form may be a part): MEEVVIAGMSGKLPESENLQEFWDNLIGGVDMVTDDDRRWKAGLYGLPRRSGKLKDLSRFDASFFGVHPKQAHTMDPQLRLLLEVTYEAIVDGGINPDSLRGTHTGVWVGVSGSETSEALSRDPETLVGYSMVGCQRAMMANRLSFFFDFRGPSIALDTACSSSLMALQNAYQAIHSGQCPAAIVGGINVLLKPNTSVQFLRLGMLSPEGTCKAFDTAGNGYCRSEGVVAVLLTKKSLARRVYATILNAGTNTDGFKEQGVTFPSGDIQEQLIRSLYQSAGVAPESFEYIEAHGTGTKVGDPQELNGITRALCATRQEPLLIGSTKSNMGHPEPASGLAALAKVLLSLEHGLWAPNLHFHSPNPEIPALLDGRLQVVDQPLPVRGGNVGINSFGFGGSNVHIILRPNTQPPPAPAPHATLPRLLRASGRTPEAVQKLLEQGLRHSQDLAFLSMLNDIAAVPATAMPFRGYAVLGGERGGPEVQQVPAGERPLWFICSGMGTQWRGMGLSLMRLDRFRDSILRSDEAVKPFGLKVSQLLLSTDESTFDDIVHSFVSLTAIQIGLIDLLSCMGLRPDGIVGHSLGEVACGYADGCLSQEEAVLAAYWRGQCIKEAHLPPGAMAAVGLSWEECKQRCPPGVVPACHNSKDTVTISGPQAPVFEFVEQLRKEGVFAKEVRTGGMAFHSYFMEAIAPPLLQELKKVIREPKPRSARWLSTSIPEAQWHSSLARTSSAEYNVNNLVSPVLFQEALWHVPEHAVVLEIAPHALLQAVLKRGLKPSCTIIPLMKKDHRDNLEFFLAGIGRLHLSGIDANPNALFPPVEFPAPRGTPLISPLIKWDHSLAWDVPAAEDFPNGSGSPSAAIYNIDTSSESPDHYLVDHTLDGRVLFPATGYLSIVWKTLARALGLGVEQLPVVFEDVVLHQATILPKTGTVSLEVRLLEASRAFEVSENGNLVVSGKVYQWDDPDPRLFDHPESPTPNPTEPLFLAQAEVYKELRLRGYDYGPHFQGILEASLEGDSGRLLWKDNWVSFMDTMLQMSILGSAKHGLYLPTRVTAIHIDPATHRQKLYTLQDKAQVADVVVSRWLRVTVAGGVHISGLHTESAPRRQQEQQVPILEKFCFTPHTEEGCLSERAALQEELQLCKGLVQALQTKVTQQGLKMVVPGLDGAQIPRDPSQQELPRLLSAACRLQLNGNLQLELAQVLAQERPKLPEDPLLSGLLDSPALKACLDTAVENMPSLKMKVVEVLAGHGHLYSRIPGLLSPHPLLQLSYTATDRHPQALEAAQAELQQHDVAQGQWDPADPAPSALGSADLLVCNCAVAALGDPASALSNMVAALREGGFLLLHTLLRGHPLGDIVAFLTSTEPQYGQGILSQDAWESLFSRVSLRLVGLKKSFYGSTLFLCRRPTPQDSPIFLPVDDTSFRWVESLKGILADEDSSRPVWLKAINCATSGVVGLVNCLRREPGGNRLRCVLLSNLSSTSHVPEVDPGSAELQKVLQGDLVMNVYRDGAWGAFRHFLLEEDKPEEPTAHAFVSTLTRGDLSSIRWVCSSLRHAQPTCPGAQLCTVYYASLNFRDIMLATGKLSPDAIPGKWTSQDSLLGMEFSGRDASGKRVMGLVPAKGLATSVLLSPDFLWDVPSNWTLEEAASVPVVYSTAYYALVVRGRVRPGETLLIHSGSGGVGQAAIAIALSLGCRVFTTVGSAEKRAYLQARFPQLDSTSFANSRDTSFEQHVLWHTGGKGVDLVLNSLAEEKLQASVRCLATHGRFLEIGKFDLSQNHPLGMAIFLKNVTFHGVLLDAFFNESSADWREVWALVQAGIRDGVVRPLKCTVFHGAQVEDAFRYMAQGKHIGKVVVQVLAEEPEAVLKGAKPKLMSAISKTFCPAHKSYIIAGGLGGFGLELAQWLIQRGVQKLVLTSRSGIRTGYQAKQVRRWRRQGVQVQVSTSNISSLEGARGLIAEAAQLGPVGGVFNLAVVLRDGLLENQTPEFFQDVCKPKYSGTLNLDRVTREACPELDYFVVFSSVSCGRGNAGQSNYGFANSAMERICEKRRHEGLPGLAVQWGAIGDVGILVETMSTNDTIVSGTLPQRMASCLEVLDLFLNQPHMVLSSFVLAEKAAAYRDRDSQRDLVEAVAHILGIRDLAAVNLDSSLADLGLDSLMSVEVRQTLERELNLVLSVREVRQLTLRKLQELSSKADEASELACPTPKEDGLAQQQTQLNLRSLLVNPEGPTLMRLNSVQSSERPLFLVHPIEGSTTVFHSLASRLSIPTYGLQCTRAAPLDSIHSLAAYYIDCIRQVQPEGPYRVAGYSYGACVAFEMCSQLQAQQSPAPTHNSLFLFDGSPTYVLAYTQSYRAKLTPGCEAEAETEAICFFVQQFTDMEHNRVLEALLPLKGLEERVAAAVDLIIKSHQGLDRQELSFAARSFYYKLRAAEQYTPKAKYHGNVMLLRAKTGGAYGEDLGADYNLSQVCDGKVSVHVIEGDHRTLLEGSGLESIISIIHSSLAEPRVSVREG
Experimental: After 20 minutes incubation at room temperature the plate was measured again (T2).
The decrease in absorbance was calculated as (Absorbance before incubation T1)−(Absorbance following incubation T2).
A plot of Controlmin versus test compound concentration was fitted to a 4-parameter logistic curve using a non-linear least squares regression method.

T1 sequence (P49327 whole entry): as the sequence (P49327 whole entry, the tested form may be a part) above

Turning to `O=C(C1CC1)N1CC[C@@H](CN2C(=O)C3(CC3)N=C2c2ccc(-c3ccc4[nH]ccc4c3)nc2)C1` [compound 402, 6-{[(3R)-1-(Cyclopropylcarbonyl)pyrrolidin-3-yl]methyl}-5-[6-(1H-indol-5-yl)pyridin-3-yl]-4,6-diazaspiro[2.4]hept-4-en-7-one], the inhibition at 10 µM in test [1] stood at 102%. Besides, the IC50 in test [1] was 138 nM; in test [2], over 10000 nM; in test [3], 174 nM; in test [4], 1740 nM; in test [5], 174 nM; in test [6], 302 nM.
Take `Cn1cc(-c2ccc(-c3ccc(C4=NC5(CC5)C(=O)N4C[C@H]4CCN(C(=O)C5CC5)C4)cc3)cc2)cn1` [compound 411, 6-{[(3S)-1-(Cyclopropylcarbonyl)pyrrolidin-3-yl]methyl}-5-[4′-(1-methyl-1H-pyrazol-4-yl)biphenyl-4-yl]-4,6-diazaspiro[2.4]hept-4-en-7-one]: the inhibition at 10 µM in test [1] was determined as 100%. In addition, the IC50 in test [1] was 158 nM; in test [2] it was over 10000 nM; in test [3], 126 nM; in test [4], 525 nM; in test [5], 162 nM; in test [6], 427 nM.
Regarding `O=C(C1CC1)N1CC[C@H](CN2C(=O)C3(CC3)N=C2c2ccc(-c3ccc(-c4cccc(Cl)c4)cc3)cc2)C1` [compound 412, 5-(3″-Chloro-1,1′:4′,1″-terphenyl-4-yl)-6-{[(3S)-1-(cyclopropylcarbonyl)pyrrolidin-3-yl]methyl}-4,6-diazaspiro[2.4]hept-4-en-7-one], the inhibition at 10 µM in test [1] stood at 96%. In addition, the IC50 in test [1] is 324 nM; in test [2], over 10000 nM; in test [3], 1620 nM; in test [4] it was 457 nM; in test [5], 575 nM; in test [6], 427 nM.
On to `Cc1ccc(-c2ccc(-c3ccc(C4=NC5(CC5)C(=O)N4C[C@H]4CCN(C(=O)C5CC5)C4)cc3)cc2)cc1` [compound 413, 6-{[(3S)-1-(Cyclopropylcarbonyl)pyrrolidin-3-yl]methyl}-5-(4″-methyl-1,1′:4′,1″-terphenyl-4-yl)-4,6-diazaspiro[2.4]hept-4-en-7-one], for which the inhibition at 10 µM in test [1] amounted to 91%. The IC50 in test [1] was 302 nM; in test [2], 7240 nM; in test [3], about 676 nM; in test [4], 447 nM; in test [5] it was 479 nM; in test [6] it was 891 nM.
As for `O=C(C1CC1)N1CC[C@@H](CN2C(=O)C3(CC3)N=C2c2ccc(-c3ccc4[nH]ncc4c3)c(F)c2)C1` [compound 414, 6-{[(3R)-1-(Cyclopropylcarbonyl)pyrrolidin-3-yl]methyl}-5-[3-fluoro-4-(1H-indazol-5-yl)phenyl]-4,6-diazaspiro[2.4]hept-4-en-7-one], in test [1], the inhibition at 10 µM came to 101%. The IC50 is 135 nM in test [1]; over 10000 nM in test [2]; about 200 nM in test [3]; 1150 nM in test [4]; 178 nM in test [5]; 295 nM in test [6].
Turning to `Cc1sc2ccc(-c3ccc(C4=NC5(CC5)C(=O)N4CC4CN(C(=O)C5CC5)C4)cc3)cc2c1C` [compound 418, 6-{[1-(Cyclopropylcarbonyl)azetidin-3-yl]methyl}-5-[4-(2,3-dimethyl-1-benzothiophen-5-yl)phenyl]-4,6-diazaspiro[2.4]hept-4-en-7-one], the inhibition at 10 µM in test [1] is 103%. The IC50 was 151 nM in test [1]; over 10000 nM in test [2]; about 2140 nM in test [3]; about 2510 nM in test [4]; 1580 nM in test [5]; 302 nM in test [6].
For the molecule `O=C(C1CC1)N1CC[C@@H](CN2C(=O)C3(CC3)N=C2c2ccc(-c3ccc4occc4c3)nc2)C1` [compound 420, 5-[6-(1-Benzofuran-5-yl)pyridin-3-yl]-6-{[(3R)-1-(cyclopropylcarbonyl)pyrrolidin-3-yl]methyl}-4,6-diazaspiro[2.4]hept-4-en-7-one], in test [1], the inhibition at 10 µM amounted to 92%. The IC50 in test [1] was 490 nM; in test [2], over 10000 nM; in test [3], about 2090 nM; in test [4], 6460 nM; in test [5], 1660 nM; in test [6] it was 977 nM.
Turning to `Cn1ncc2cc(-c3ccc(C4=NC5(CC5)C(=O)N4C[C@@H]4CCN(C(=O)C5CC5)C4)cn3)ccc21` [compound 421, 6-{[(3R)-1-(Cyclopropylcarbonyl)pyrrolidin-3-yl]methyl}-5-[6-(1-methyl-1H-indazol-5-yl)pyridin-3-yl]-4,6-diazaspiro[2.4]hept-4-en-7-one], the “Human FASN pIC50” value in test [1] (hFASN enzyme full length, scintillation proximity assay, "~" = standard error of pIC50 larger than 0.5) worked out at 6.34. In test [1], the inhibition at 10 µM is 94%. Besides, the IC50 in test [2] is over 10000 nM; in test [3], 1150 nM; in test [4], 1290 nM; in test [5], 1050 nM; in test [6], 1780 nM.
For `O=C(C1CC1)N1CC[C@@H](CN2C(=O)C3(CC3)N=C2c2ccc(-c3ccc4[nH]ccc4c3)s2)C1` [compound 423, 6-{[(3R)-1-(Cyclopropylcarbonyl)pyrrolidin-3-yl]methyl}-5-[5-(1H-indol-5-yl)thiophen-2-yl]-4,6-diazaspiro[2.4]hept-4-en-7-one], in test [1], the inhibition at 10 µM came to 90%. Moreover, the IC50 is 316 nM in test [1]; over 10000 nM in test [2]; 1290 nM in test [3]; 2570 nM in test [4]; 1350 nM in test [5]; 550 nM in test [6].
For the molecule `O=C(C1CC1)N1CC[C@@H](CN2C(=O)C3(CC3)N=C2c2ccc(-c3ccc4sccc4c3)s2)C1` [compound 425, 5-[5-(1-Benzothiophen-5-yl)thiophen-2-yl]-6-{[(3R)-1-(cyclopropylcarbonyl)pyrrolidin-3-yl]methyl}-4,6-diazaspiro[2.4]hept-4-en-7-one], the inhibition at 10 µM in test [1] is 93%. For the same molecule, the IC50 in test [1] is 275 nM; in test [2], over 10000 nM; in test [3] it was about 6920 nM; in test [4], 3160 nM; in test [5], 2190 nM; in test [6], 646 nM.
For the molecule `O=C(C1CC1)N1CC[C@@H](CN2C(=O)C3(CC3)N=C2c2ccc(-c3ccc4c(c3)N=CC4)s2)C1` [compound 426, 6-{[(3R)-1-(Cyclopropylcarbonyl)pyrrolidin-3-yl]methyl}-5-[5-(3H-indol-6-yl)thiophen-2-yl]-4,6-diazaspiro[2.4]hept-4-en-7-one], the inhibition at 10 µM in test [1] turned out to be 94%. Further, the IC50 in test [1] is 347 nM; in test [2], over 10000 nM; in test [3] it was 2340 nM; in test [4], 2340 nM; in test [5], 1740 nM; in test [6], 708 nM.
As to `O=C(C1CC1)N1CC[C@@H](CN2C(=O)C3(CC3)N=C2c2ccc(-c3cccc4[nH]ncc34)s2)C1` [compound 427, 6-{[(3R)-1-(Cyclopropylcarbonyl)pyrrolidin-3-yl]methyl}-5-[5-(1H-indazol-4-yl)thiophen-2-yl]-4,6-diazaspiro[2.4]hept-4-en-7-one], in test [1], the inhibition at 10 µM amounted to 91%. Further, the IC50 was 417 nM in test [1]; over 10000 nM in test [2]; 832 nM in test [3]; 2630 nM in test [4]; 851 nM in test [5]; 1120 nM in test [6].
For `O=C(C1CC1)N1CC[C@@H](CN2C(=O)C3(CC3)N=C2c2ccc(-c3ccc4cc[nH]c4c3)cn2)C1` [compound 428, 6-{[(3R)-1-(Cyclopropylcarbonyl)pyrrolidin-3-yl]methyl}-5-[5-(1H-indol-6-yl)pyridin-2-yl]-4,6-diazaspiro[2.4]hept-4-en-7-one], the inhibition at 10 µM in test [1] was determined as 101%. Further, the IC50 in test [1] is 138 nM; in test [2], over 10000 nM; in test [3], about 1100 nM; in test [4], 2820 nM; in test [5], 794 nM; in test [6], 589 nM.
Consider `Cc1cc2cc(-c3ccc(C4=NC5(CC5)C(=O)N4CC4CN(C(=O)C5CC5)C4)cc3)ccc2s1` [compound 432, 6-{[1-(Cyclopropylcarbonyl)azetidin-3-yl]methyl}-5-[4-(2-methyl-1-benzothiophen-5-yl)phenyl]-4,6-diazaspiro[2.4]hept-4-en-7-one], for which, in test [1], the inhibition at 10 µM came out at 98%. The IC50 is 141 nM in test [1]; over 6170 nM in test [2]; 1510 nM in test [3]; 2040 nM in test [4]; 871 nM in test [5]; 447 nM in test [6].
With `O=C(C1CC1)N1CC(CN2C(=O)C3(CC3)N=C2c2ccc(-c3ccc4[nH]ccc4c3)c(F)c2)C1` [compound 440, 6-{[1-(Cyclopropylcarbonyl)azetidin-3-yl]methyl}-5-[3-fluoro-4-(1H-indol-5-yl)phenyl]-4,6-diazaspiro[2.4]hept-4-en-7-one], the inhibition at 10 µM in test [1] is 97%. For the same molecule, the IC50 in test [1] was 195 nM; in test [2], over 10000 nM; in test [3] it was 95.5 nM; in test [4] it was 1150 nM; in test [5], 234 nM; in test [6], 214 nM.
